Measured values: patent US20060173067A1, “Small molecules for the treatment of atherosclerosis” (The Regents of the University of California, priority 2004, published 2006)
“Also recorded” adds a separate entry of the source. Where a SMILES comes first, the peptide text is derived from it. [ ]: non-standard residue; d: D form. The star is where a group is joined. Boc = CC(C)(C)OC(=O)*; OtBu = CC(C)(C)O*; tBu = CC(C)(C)*

Tests used:
[1] = Solubility of peptides in ethyl acetate; format: physicochemical; settings: 10 mg/mL added, room temperature 30 minutes, FIG. 3
Method: To evaluate solubility in ethyl acetate, each peptide was weighed and added to a centrifuge tube and ethyl acetate (HPLC grade; residue after evaporation <0.0001%) was added to give a concentration of 10 mg/mL. The tubes were sealed, vortexed and kept at room temperature for 30 minutes with vortexing every 10 minutes. The tubes were then centrifuged for 5 minutes at 10,000 rpm and the supernatant was removed to a previously weighed tube. The ethyl acetate was evaporated under argon and the tubes weighed to determine the amount of peptide that had been contained in the supernatant. The percent of the originally added peptide that was dissolved in the supernatant is shown on the Y-axis. he data are mean±S.D. Control represents sham treated tubes; SEQ ID NO:3 and SEQ ID NO:4 were both synthesized from all D-amino acids. The sequence Boc-Phe-Arg-Glu-Leu-OtBu (SEQ ID NO:5, SEQ ID NO:250 in copending application U.S. Ser. No. 10/649,378) was synthesized from all L-amino acids.

apoE null mice [2] = experiment: Atherosclerosis in apoE null mice fed peptide in chow for 15 weeks; format: in vivo; settings: female apoE null mice, 200 μg/gm chow
Method: The aortic root (aortic sinus) lesion score was determined in the apoE null mice described in FIG. 13. The number of mice in each group is shown (n=) at the bottom of the figure and a representative section for each group is shown at the top of the figure.
The percent aortic surface containing atherosclerotic lesions was determined in en face preparations in the apoE null mice described in FIG. 13. The number of mice in each group is shown (n=) at the bottom of the left panel and a representative aorta for mice fed chow alone or chow supplemented with. SEQ ID NO:4 is shown in the right panel.
(§1) Female apoE null mice at age 8 weeks were given no additions to their diet (Chow) or received 200 μg/gm chow of SEQ ID NO:3 (+254) or 200 μg/gm chow of SEQ ID NO: 4 (+258), both synthesized from all D-amino acids. After 15 weeks the mice were bled and their plasma fractionated by FPLC and their HDL (mHDL) tested in a human artery wall cell coculture. A standard human LDL (at 100 μg/mL of LDL-cholesterol) was added alone (LDL) or not added (no addition) or was added with 50 μg/mL of normal human HDL (hHDL) or 50 μg/mL of mouse HDL (mHDL) to human artery wall cocultures and the resulting monocyte chemotactic activity was determined and plotted on the Y-axis.

[3] = system: LDL-induced monocyte chemotactic activity in human artery wall cocultures; experiment: Monocyte chemotactic activity in human artery wall cell coculture with HDL of peptide-fed apoE null mice; format: in vivo; settings: female apoE null mice, 200 μg/gm chow, 15 weeks, 50 μg/mL mouse HDL, FIG. 13
From the text: Lipoproteins, human artery wall cocultures, and monocytes can be prepared and monocyte chemotactic activity (MCA) determined as previously described (Van Lenten et al. (2002) Circulation, 106: 1127-1132). Induction of MCA by a standard control LDL can be determined in the absence or presence of the subject's HDL. Values in the absence of HDL are typically normalized to 1.0. Values greater than 1.0 after the addition of HDL indicate pro-inflammatory HDL; values less than 1.0 indicate anti-inflammatory HDL.
as §1

[4] = Interaction of peptide with DMPC in an aqueous environment (dialysis, negative-stain electron micrograph); format: physicochemical; settings: for appearance of solution after dialysis (deoxycholate removed): DMPC: peptide 1:10 wt:wt in PBS; for Bilayer dimension of stacked bilayers / Spacing between bilayers in the stack / Vesicular structures, size: DMPC: peptide 1:10 wt:wt, aqueous environment
Method: FIG. 4 SEQ ID NO:4 forms 7.5 nm particles when mixed with DMPC in an aqueous environment. To 1 mg/ml of DMPC suspension in phosphate buffered saline (PBS) was added 10% deoxycholate until the DMPC was dissolved. SEQ ID NO: 4 or SEQ ID NO:3 were added (DMPC: peptide; 1:10; wt:wt) and the reaction mixture dialyzed. […] The figure is an electron micrograph prepared with negative staining and at 147,420× magnification. The arrows indicate SEQ ID NO: 4 particles measuring 7.5 nm (they appear as small white particles).
To 1 mg/ml of DMPC suspension in phosphate buffered saline (PBS) was added 10% deoxycholate until the DMPC was dissolved. Peptides, SEQ ID NO:4 or SEQ ID NO:3, were added (DMPC: peptide; 1:10; wt:wt) and the reaction mixture dialyzed.

[5] = Solubility in aqueous buffer at pH 7.0; format: physicochemical; settings: pH 7.0, data not shown
[6] = Interaction of peptide with DMPC in an aqueous environment (dialysis, negative-stain electron micrograph); format: physicochemical; settings: DMPC: peptide 1:10 wt:wt
apoE null mice [7] = experiment: Atherosclerosis in apoE null mice fed SEQ ID NO:5 in chow for 12 weeks; format: in vivo; settings: 200 μg/gm chow, p=0.012, FIG. 16

Row | solubility in ethyl acetate [1] | appearance of solution after dialysis (deoxycholate removed) [4] | formation of 7.5 nm particles, stacked lipid-peptide bilayers, 38 nm vesicular structures ([4]; conditions of FIG. 4, data not shown) | solubility in aqueous buffer at pH 7.0 [5] | diameter of particles formed with DMPC (Size "Nascent HDL Particles") ([6]; listed as SEQ ID NO: 4) | diameter of particles formed with DMPC (Size "Nascent HDL Particles") ([6]; listed as SEQ ID NO: 6) [nm] | Bilayer dimension of stacked bilayers [4] [nm] | Spacing between bilayers in the stack [4] | Vesicular structures, size [4] | Vesicular structures, size ([4]; listed as SEQ ID NO: 4) | Bilayer dimension of stacked bilayers ([4]; listed as SEQ ID NO: 6) | Spacing between bilayers in the stack ([4]; listed as SEQ ID NO: 6) [nm] | Vesicular structures, size ([4]; listed as SEQ ID NO: 6) [nm] | SMILES | aortic root (aortic sinus) atherosclerosis, lesion score (apoE null mice [2]; FIG. 14) | aortic atherosclerosis in en face preparations, percent aortic surface containing lesions (apoE null mice [2]; FIG. 15) | HDL rendered anti-inflammatory (monocyte chemotactic activity) [3] | aortic root (aortic sinus) atherosclerosis, lesion score (apoE null mice [2]; FIG. 14, listed as SEQ ID NO: 4) | aortic atherosclerosis in en face preparations, percent aortic surface containing lesions (apoE null mice [2]; FIG. 15, listed as SEQ ID NO: 4) | HDL rendered anti-inflammatory (monocyte chemotactic activity) ([3]; listed as SEQ ID NO: 4) | % Aortic Surface Area with Lesions in en face preparations (apoE null mice [7])
1 | poorly soluble | turbid | did not form | – | – | – | – | – | – | – | – | – | – | CC(C)(C)OC[C@@H](NC(=O)[C@@H](CCCNC(=N)N)NC(=O)[C@@H](CCC(=O)O)NC(=O)[C@@H](CCCCNC(=O)OC(C)(C)C)NC(=O)OC(C)(C)C)C(=O)OC(C)(C)C [SEQ ID NO:3, Boc-Lys(εBoc)-Glu-Arg-Ser(tBu)-OtBu] (Boc-[dK](Boc)[dE][dR][dS](tBu)-OtBu) | not | not | not | – | – | – | –
2 | very soluble | – | – | – | – | – | – | – | – | – | – | – | – | CC(C)C[C@H](NC(=O)[C@H](CCC(=O)O)NC(=O)[C@H](CCCNC(=N)N)NC(=O)[C@H](Cc1ccccc1)NC(=O)OC(C)(C)C)C(=O)OC(C)(C)C [SEQ ID NO:5, Boc-Phe-Arg-Glu-Leu-OtBu] (Boc-FREL-OtBu) | – | – | – | – | – | – | significantly decreases atherosclerosis

Row | SMILES | solubility in ethyl acetate [1] | appearance of solution after dialysis (deoxycholate removed) [4] | formation of 7.5 nm particles, stacked lipid-peptide bilayers, 38 nm vesicular structures ([4]; conditions of FIG. 4, data not shown) | solubility in aqueous buffer at pH 7.0 [5] | diameter of particles formed with DMPC (Size "Nascent HDL Particles") ([6]; listed as SEQ ID NO: 4) | diameter of particles formed with DMPC (Size "Nascent HDL Particles") ([6]; listed as SEQ ID NO: 6) [nm] | Bilayer dimension of stacked bilayers [4] [nm] | Spacing between bilayers in the stack [4] | Vesicular structures, size [4] | Vesicular structures, size ([4]; listed as SEQ ID NO: 4) | Bilayer dimension of stacked bilayers ([4]; listed as SEQ ID NO: 6) | Spacing between bilayers in the stack ([4]; listed as SEQ ID NO: 6) [nm] | Vesicular structures, size ([4]; listed as SEQ ID NO: 6) [nm] | aortic root (aortic sinus) atherosclerosis, lesion score (apoE null mice [2]; FIG. 14) | aortic atherosclerosis in en face preparations, percent aortic surface containing lesions (apoE null mice [2]; FIG. 15) | HDL rendered anti-inflammatory (monocyte chemotactic activity) [3] | aortic root (aortic sinus) atherosclerosis, lesion score (apoE null mice [2]; FIG. 14, listed as SEQ ID NO: 4) | aortic atherosclerosis in en face preparations, percent aortic surface containing lesions (apoE null mice [2]; FIG. 15, listed as SEQ ID NO: 4) | HDL rendered anti-inflammatory (monocyte chemotactic activity) ([3]; listed as SEQ ID NO: 4) | % Aortic Surface Area with Lesions in en face preparations (apoE null mice [7])
3 | CC(C)(C)OC[C@@H](NC(=O)[C@@H](CCC(=O)O)NC(=O)[C@@H](CCCNC(=N)N)NC(=O)[C@@H](CCCCNC(=O)OC(C)(C)C)NC(=O)OC(C)(C)C)C(=O)OC(C)(C)C [SEQ ID NO:4, Boc-Lys(εBoc)-Arg-Glu-Ser(tBu)-OtBu] (Boc-[dK](Boc)[dR][dE][dS](tBu)-OtBu) | very soluble; also recorded: highly soluble | remained clear | – | soluble | approximately 7.5 nm | 7.5 | 3.4 to 4.1 | approximately 2 nm | approximately 38 nm | approximately 38 nm | 3.4-4.1 nm | 2.0 | 38 | significantly decreases | significantly decreases | renders apoE null HDL anti-inflammatory | significantly reduced | significantly decreased | rendered anti-inflammatory | –
